Some results are limits rather than exact numbers.

The target in this test is T1, ATM (Homo sapiens, UniProt Q13315).
T1 construct: detecting phosphorylation of Chk2 in a human non-small cell lung cancer cell line NCI-H460 (ATCC company); host or cells: NCI-H460 human non-small cell lung cancer cells
T1 sequence (Q13315 whole entry): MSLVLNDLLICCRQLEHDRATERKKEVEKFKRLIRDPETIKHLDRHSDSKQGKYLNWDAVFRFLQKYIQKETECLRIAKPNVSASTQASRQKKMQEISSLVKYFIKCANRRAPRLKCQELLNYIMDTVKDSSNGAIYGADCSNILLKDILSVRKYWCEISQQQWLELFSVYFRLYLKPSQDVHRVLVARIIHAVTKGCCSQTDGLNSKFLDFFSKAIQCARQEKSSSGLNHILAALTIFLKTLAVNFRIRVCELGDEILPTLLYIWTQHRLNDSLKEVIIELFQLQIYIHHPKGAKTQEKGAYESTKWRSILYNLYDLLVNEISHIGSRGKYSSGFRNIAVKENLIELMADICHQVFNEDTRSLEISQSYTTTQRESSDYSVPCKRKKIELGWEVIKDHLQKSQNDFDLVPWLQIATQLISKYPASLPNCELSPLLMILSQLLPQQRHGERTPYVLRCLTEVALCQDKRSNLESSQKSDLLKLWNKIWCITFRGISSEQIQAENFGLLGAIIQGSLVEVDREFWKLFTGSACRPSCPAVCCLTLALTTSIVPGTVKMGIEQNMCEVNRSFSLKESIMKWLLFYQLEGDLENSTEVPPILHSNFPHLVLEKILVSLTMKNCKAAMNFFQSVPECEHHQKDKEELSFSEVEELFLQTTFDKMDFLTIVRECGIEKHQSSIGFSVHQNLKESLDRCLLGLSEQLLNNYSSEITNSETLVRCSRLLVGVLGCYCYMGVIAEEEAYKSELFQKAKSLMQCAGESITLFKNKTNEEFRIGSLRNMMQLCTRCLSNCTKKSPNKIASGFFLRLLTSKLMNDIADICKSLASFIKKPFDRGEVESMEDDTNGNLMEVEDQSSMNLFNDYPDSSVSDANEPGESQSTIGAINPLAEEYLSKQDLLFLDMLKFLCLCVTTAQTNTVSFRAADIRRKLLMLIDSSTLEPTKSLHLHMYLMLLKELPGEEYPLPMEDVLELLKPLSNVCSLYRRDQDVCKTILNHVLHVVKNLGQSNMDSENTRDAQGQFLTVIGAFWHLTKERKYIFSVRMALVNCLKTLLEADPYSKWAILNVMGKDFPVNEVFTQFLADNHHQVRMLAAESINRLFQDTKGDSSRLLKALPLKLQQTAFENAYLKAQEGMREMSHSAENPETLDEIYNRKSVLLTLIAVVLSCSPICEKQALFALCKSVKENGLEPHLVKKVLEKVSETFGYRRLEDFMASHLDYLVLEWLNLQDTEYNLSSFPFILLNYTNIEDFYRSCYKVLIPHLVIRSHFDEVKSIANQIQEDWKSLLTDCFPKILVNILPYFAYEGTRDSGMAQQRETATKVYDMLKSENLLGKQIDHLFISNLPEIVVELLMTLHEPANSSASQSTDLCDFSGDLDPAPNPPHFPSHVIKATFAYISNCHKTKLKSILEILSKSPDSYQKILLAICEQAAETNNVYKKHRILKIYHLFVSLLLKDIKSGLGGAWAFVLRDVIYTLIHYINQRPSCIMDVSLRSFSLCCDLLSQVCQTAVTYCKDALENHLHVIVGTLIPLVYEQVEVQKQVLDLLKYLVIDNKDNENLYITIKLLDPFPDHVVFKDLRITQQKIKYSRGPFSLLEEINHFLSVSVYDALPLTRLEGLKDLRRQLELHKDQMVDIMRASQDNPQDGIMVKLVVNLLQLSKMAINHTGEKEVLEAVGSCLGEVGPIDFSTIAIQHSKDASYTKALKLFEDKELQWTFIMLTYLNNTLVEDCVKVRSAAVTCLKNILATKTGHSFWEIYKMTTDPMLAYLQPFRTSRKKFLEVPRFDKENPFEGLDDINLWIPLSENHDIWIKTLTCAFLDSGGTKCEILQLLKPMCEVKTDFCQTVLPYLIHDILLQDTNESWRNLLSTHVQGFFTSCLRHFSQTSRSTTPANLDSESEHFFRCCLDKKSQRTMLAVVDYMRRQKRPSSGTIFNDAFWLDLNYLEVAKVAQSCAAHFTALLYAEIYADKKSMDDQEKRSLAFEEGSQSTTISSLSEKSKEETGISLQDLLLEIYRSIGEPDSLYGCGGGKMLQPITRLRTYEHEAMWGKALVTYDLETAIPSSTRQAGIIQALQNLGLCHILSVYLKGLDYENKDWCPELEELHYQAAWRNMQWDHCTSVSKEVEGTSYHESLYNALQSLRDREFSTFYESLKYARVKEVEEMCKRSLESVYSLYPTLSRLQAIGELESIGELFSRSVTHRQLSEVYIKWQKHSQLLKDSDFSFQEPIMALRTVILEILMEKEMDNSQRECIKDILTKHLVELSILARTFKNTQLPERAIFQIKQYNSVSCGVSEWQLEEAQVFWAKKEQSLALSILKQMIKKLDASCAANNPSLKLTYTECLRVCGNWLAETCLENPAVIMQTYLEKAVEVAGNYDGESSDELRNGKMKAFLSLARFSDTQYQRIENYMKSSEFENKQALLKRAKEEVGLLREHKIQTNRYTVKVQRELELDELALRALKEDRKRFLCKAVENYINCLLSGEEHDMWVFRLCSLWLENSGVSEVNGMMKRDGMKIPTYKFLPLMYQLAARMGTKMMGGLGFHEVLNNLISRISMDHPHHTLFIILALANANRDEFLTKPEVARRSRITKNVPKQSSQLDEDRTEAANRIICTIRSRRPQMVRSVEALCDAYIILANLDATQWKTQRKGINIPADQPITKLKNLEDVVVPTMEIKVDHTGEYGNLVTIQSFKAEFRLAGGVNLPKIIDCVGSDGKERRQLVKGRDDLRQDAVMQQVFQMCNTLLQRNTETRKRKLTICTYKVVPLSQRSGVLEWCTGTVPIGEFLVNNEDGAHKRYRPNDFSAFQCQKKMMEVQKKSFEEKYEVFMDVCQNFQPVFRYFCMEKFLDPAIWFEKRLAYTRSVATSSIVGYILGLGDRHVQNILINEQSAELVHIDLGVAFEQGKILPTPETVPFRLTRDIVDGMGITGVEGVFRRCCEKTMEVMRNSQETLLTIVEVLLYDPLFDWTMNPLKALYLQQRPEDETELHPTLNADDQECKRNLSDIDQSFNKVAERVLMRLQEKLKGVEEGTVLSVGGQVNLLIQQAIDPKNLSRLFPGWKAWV
As to the kind of experiment: ATM inhibition test (phosphorylation of Chk2 generated by ionizing radiation, AlphaScreen SureFire). The following applies: phosphorylated Chk2 in NCI-H460 cells, ionizing radiation 8Gy, 1 hour after test compound treatment; read-out: ATM inhibitory activity. In kind it is cell-based. The method, boiled down: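 Phosphorylated Chk2 read by AlphaScreen SureFire in human non-small cell lung cancer NCI-H460 cells, 1 hour after 8Gy ionizing radiation at 37° C. Compound added 1 hour before irradiation. Percent inhibition normalised between irradiated and non-irradiated drug-untreated signals.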
On to `COc1ccncc1CNc1ccc2c(c1)Sc1cccc(-c3cc(N4CCOCC4)cc(=O)[nH]3)c1S2` [Example 1-12-23, 6-(7-(((4-Methoxypyridin-3-yl)methyl)amino)thianthren-1-yl)-4-morpholino pyridin-2 (1H)-one], for which the IC50 was in the range of 100 to 500 nM. For `O=c1cc(N2CCOCC2)cc(-c2cccc3c2Oc2ccc(NCc4cccc(C(F)(F)F)c4)cc2C3)[nH]1` [Example 2-3-14, 4-Morpholino-6-(7-((3-(trifluoromethyl)benzyl)amino)-9H-xanthen-4-yl) pyridin-2(1H)-one] the value was 100 to 500 nM.

In the case of `Cc1ccnc(CNc2ccc3c(c2)Cc2ccnc(-c4cc(N5CCOCC5)cc(=O)[nH]4)c2O3)c1` [Example 2-41-7, 6-(7-(((4-Methylpyridin-2-yl)methyl)amino)-5H-chromeno [2,3-c]pyridin-1-yl)-4-morpholino pyridin-2(1H)-one], the IC50 was in the range of 100 to 500 nM. Turning to `O=c1cc(N2CCOCC2)cc(-c2nccc3c2Oc2ccc(NCc4cncc(Cl)c4)cc2C3)[nH]1` [Example 2-41-9, 6-(7-(((5-Chloropyridin-3-yl)methyl)amino)-5H-chromeno [2,3-c]pyridin-1-yl)-4-morpholino pyridin-2(1H)-one], the IC50 is 100 to 500 nM. Next, `O=c1cc(N2CCOCC2)cc(-c2cccc3c2Oc2ccc(NCc4ccsc4)cc2C3)[nH]1` [Example 2-14-35, 4-Morpholino-6-(7-((thiophen-3-ylmethyl)amino)-9H-xanthen-4-yl) pyridin-2(1H)-one]: 100 to 500 nM.

On to `O=c1cc(N2CCOCC2)cc(-c2cccc3c2Sc2ccc(NC(CN4CCCCC4)CN4CCOCC4)cc2S3)[nH]1` (stereo not shown) [Example 1-39, 4-morpholino-6-(7-((1-morpholino-3-(piperidin-1-yl)propan-2-yl)amino)thianthren-1-yl)pyridin-2(1H)-one], for which the IC50 was 100 to 500 nM. Consider `O=c1cc(N2CCOCC2)cc(-c2cccc3c2Sc2ccc(NCc4cnccn4)cc2S3)[nH]1` [Example 1-12-42, 4-Morpholino-6-(7-((pyrazin-2-ylmethyl)amino)thianthren-1-yl) pyridin-2(1H)-one], for which the IC50 lay within 100 to 500 nM. With `Cc1ccc(C(Nc2ccc3c(c2)Sc2cccc(-c4cc(N5CCOCC5)cc(=O)[nH]4)c2S3)C2CN(CCO)CCO2)nc1` (racemic) [Example 1-57-2, 6-(7-(((4-(2-Hydroxyethyl)morpholin-2-yl)(5-methylpyridin-2-yl)methyl)amino)thianthren-1-yl)-4-morpholinopyridin-2(1H)-one], the IC50 was under 100 nM.

Turning to `Cc1cnc(C(CCN(C)C)Nc2ccc3c(c2)Cc2cccc(-c4cc(=O)cc(N5CCOCC5)o4)c2O3)cn1` (single isomer, unassigned) [Example 12-6, 2-(7-((3-(Dimethylamino)-1-(5-methylpyrazine-2-yl)propyl)amino)-9H-xanthen-4-yl)-6-morpholino-4H-pyran-4-one], the IC50 was 100 to 500 nM. Next, `Cc1cncc(CNc2ccc3c(c2)Cc2cccc(-c4cc(N5CCOCC5)cc(=O)[nH]4)c2O3)n1` [Example 2-14-74, 6-(7-(((6-Methylpyrazin-2-yl)methyl)amino)-9H-xanthen-4-yl)-4-morpholino pyridin-2(1H)-one]: 100 to 500 nM; `Cc1cccc(C(CN)Nc2ccc3c(c2)Cc2cccc(-c4cc(N5CCOCC5)cc(=O)[nH]4)c2O3)n1` (stereo not shown) [Example 2-18, 6-(7-((2-Amino-1-(6-methylpyridin-2-yl)ethyl)amino)-9H-xanthen-4-yl)-4-morpholinopyridin-2(1H)-one]: 100 to 500 nM. For `N#Cc1cccc(CNc2cccc3c2Cc2cccc(-c4cc(N5CCOCC5)cc(=O)[nH]4)c2O3)c1` [Example 2-56-4, 3-(((5-(4-Morpholino-6-oxo-1,6-dihydropyridin-2-yl)-9H-xanthen-1-yl)amino)methyl)benzonitrile] the value was 100 to 500 nM.

With `CC(Nc1ccc2c(c1)Cc1cccc(-c3cc(N4CCOCC4)cc(=O)[nH]3)c1O2)c1cc(CF)ncn1` (stereo not shown) [Example 2-14-65, 6-(7-((1-(6-(Fluoromethyl)pyrimidin-4-yl)ethyl)amino)-9H-xanthen-4-yl)-4-morpholino pyridin-2(1H)-one], the IC50 lay in the range of 100 to 500 nM.

On to `Cc1cnc(C(CN(C)C)Nc2ccc3c(c2)Sc2cccc(-c4cc(N5CCOCC5)cc(=O)[nH]4)c2S3)cn1` (stereo not shown) [Example 1-32, 6-(7-((2-(dimethylamino)-1-(5-methylpyrazin-2-yl)ethyl)amino)thianthren-1-yl)-4-morpholinopyridin-2(1H)-one], for which the IC50 lay in the range of 100 to 500 nM.

In the case of `CC(CN1CCNCC1)Nc1ccc2c(c1)Sc1cccc(-c3cc(N4CCOCC4)cc(=O)[nH]3)c1S2` (stereo not shown) [Example 1-14, 4-Morpholino-6-(7-((1-(piperazin-1-yl)propan-2-yl)amino)thianthren-1-yl)pyridin-2(1H)-one], the IC50 lay in the range of 500 to 2000 nM.

Take `Cc1ccnc(C(CO)Nc2ccc3c(c2)Sc2cccc(-c4cc(N5CCOCC5)cc(=O)[nH]4)c2S3)c1` (single isomer, unassigned) [Example 1-12-138-1, 6-(7-((2-hydroxy-1-(4-methylpyridin-2-yl)ethyl)amino)thianthren-1-yl)-4-morpholinopyridin-2(1H)-one]: the IC50 is 100 to 500 nM.

In the case of `O=c1cc(N2CCOCC2)cc(-c2cccc3c2Sc2ccc(NCCN4CCOCC4)cc2C3)[nH]1` [Example 3-4-1, 4-Morpholino-6-(7-((2-morpholinoethyl)amino)-9H-thioxanthen-4-yl)pyridin-2(1H)-one], the IC50 was in the range of 500 to 2000 nM. As for `CC(CN1CCN(c2ccncc2)CC1)Nc1ccc2c(c1)Sc1cccc(-c3cc(N4CCOCC4)cc(=O)[nH]3)c1S2` (stereo not shown) [Example 1-13-16, 4-Morpholino-6-(7-((1-(4-(pyridin-4-yl)piperazin-1-yl)propan-2-yl)amino)thianthren-1-yl)pyridin-2 (1H)-one], the IC50 fell in the range of 100 to 500 nM. For `COC1CCN(CCNc2ccc3c(c2)Sc2cccc(-c4cc(N5CCOCC5)cc(=O)[nH]4)c2S3)CC1` [Example 1-10-15, 6-(7-((2-(4-Methoxypiperidin-1-yl)ethyl)amino)thianthren-1-yl)-4-morpholino pyridin-2(1H)-one] the value was 100 to 500 nM; for `CC(Nc1ccc2c(c1)Sc1cccc(-c3cc(N4CCOCC4)cc(=O)[nH]3)c1S2)C(=O)N1CCOCC1` (stereo not shown) [Example 1-18-5], 500 to 2000 nM. On to `CC(Nc1ccc2c(c1)Cc1cccc(-c3cc(N4CCOCC4)cc(=O)[nH]3)c1O2)c1cc(Cl)ccn1` (single isomer, unassigned) [Example 2-14-89-1, 6-(7-((1-(4-chloropyridin-2-yl)ethyl)amino)-9H-xanthen-4-yl)-4-morpholinopyridin-2(1H)-one], for which the IC50 is 100 to 500 nM. Next, `O=c1cc(N2CCOCC2)cc(-c2cccc3c2Oc2ccc(NCc4cncc(N5CCCC5)c4)cc2C3)[nH]1` [Example 2-2-63, 4-Morpholino-6-(7-(((5-(pyrrolidin-1-yl)pyridin-3-yl)methyl)amino)-9H-xanthen-4-yl)pyridin-2(1H)-one]: 100 to 500 nM; `CCOC(=O)c1cccc(CNc2ccc3c(c2)Cc2cccc(-c4cc(N5CCOCC5)cc(=O)[nH]4)c2O3)n1` [Example 2-14-73, Ethyl 6-(((5-(4-morpholino-6-oxo-1,6-dihydropyridin-2-yl)-9H-xanthen-2-yl)amino)methyl)picolinate]: 100 to 500 nM. Take `COC[C@H](CN(C)C1CCCCC1)Nc1ccc2c(c1)Sc1cccc(-c3cc(N4CCOCC4)cc(=O)[nH]3)c1S2` [Example 1-46-12, (S)-6-(7-((1-(Cyclohexyl (methyl)amino)-3-methoxypropan-2-yl)amino)thianthren-1-yl)-4-morpholino pyridin-2 (1H)-one]: the IC50 lay within 100 to 500 nM. Consider `Cc1ccc(C(Nc2ccc3c(c2)Sc2cccc(-c4cc(N5CCOCC5)cc(=O)[nH]4)c2S3)C2CCC2)nc1` (stereo not shown) [Example 1-12-124, 6-(7-((Cyclobutyl(5-methylpyridin-2-yl)methyl)amino)thianthren-1-yl)-4-morpholino pyridin-2(1H)-one], for which the IC50 lay within 100 to 500 nM. Turning to `O=c1cc(N2CCOCC2)cc(-c2cccc3c2Oc2ccc(NC4CCN(Cc5cncc(Cl)c5)CC4)cc2C3)[nH]1` [Example 2-28-17, 6-(7-((1-((5-Chloropyridin-3-yl)methyl)piperidin-4-yl)amino)-9H-xanthen-4-yl)-4-morpholino pyridin-2(1H)-one], the IC50 was 100 to 500 nM. Next, `COCC(CN1CCOCC1)Nc1ccc2c(c1)Sc1cccc(-c3cc(N4CCOCC4)cc(=O)[nH]3)c1S2` (single isomer, unassigned) [Example 1-17-1-3, 6-(7-((1-methoxy-3-morpholinopropan-2-yl)amino)thianthren-1-yl)-4-morpholinopyridin-2(1H)-one]: 100 to 500 nM; `O=c1cc(N2CCOCC2)cc(-c2ccc(F)c3c2Oc2ccc(NCc4cc(C5CC5)ccn4)cc2C3)[nH]1` [Example 2-44-2, 6-(7-(((4-Cyclopropylpyridin-2-yl)methyl)amino)-1-fluoro-9H-xanthen-4-yl)-4-morpholinopyridin-2(1H)-one]: 100 to 500 nM; `CC(Nc1ccc2c(c1)Sc1cccc(-c3cc(N4CCOCC4)cc(=O)[nH]3)c1S2)c1ncc(CO)cn1` (stereo not shown) [Example 1-12-92, 6-(7-((1-(5-(Hydroxymethyl)pyrimidin-2-yl)ethyl)amino)thianthren-1-yl)-4-morpholino pyridin-2(1H)-one]: 100 to 500 nM.

As to `CC(CNC1CCCCC1)Nc1ccc2c(c1)Sc1cccc(-c3cc(N4CCOCC4)cc(=O)[nH]3)c1S2` (stereo not shown) [Example 1-13-7, 6-(7-((1-(Cyclohexylamino)propan-2-yl)amino)thianthren-1-yl)-4-morpholino pyridin-2(1H)-one], the IC50 lay in the range of 100 to 500 nM. Consider `CCN(CC)CC(Nc1ccc2c(c1)Sc1cccc(-c3cc(N4CCOCC4)cc(=O)[nH]3)c1S2)c1ncc(C)cn1` (stereo not shown) [Example 1-12-106, 6-(7-((2-(Diethylamino)-1-(5-methylpyrimidin-2-yl)ethyl)amino)thianthren-1-yl)-4-morpholino pyridin-2(1H)-one], for which the IC50 fell in the range of 100 to 500 nM.

The values are drawn from patent US9586951B2 (FUJIFILM Corporation, priority 2013, dated 2017).
